The target in one test is mu opioid receptor (MOR) (Homo sapiens, UniProt P35372). As to conditions: cited from earlier work.
Another test has as its target kappa-opioid receptor (Homo sapiens, UniProt P41145). As to conditions: cited from earlier work.
Test [1] concerns the target FLNA pentapeptide of SEQ ID NO: 1 (Bn-VAKGL) (Homo sapiens, UniProt P21333). Description: FITC-NLX-based FLNA screening assay (inhibition of FITC-naloxone binding to Bn-VAKGL). As to conditions: read-out: Percent Inhibition.

Each structure is given as a SMILES string.

kappa-opioid receptor, sequence (P41145 whole entry): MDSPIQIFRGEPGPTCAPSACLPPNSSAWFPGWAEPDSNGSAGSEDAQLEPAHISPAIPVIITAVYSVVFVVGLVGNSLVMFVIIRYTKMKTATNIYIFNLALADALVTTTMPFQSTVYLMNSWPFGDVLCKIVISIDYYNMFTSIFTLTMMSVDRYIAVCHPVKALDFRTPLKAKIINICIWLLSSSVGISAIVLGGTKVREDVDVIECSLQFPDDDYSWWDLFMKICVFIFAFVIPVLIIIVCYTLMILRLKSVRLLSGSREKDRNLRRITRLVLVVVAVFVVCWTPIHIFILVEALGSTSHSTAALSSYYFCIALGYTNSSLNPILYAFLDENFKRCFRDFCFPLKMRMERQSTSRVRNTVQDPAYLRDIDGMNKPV
mu opioid receptor (MOR), sequence (P35372 whole entry, species assumed): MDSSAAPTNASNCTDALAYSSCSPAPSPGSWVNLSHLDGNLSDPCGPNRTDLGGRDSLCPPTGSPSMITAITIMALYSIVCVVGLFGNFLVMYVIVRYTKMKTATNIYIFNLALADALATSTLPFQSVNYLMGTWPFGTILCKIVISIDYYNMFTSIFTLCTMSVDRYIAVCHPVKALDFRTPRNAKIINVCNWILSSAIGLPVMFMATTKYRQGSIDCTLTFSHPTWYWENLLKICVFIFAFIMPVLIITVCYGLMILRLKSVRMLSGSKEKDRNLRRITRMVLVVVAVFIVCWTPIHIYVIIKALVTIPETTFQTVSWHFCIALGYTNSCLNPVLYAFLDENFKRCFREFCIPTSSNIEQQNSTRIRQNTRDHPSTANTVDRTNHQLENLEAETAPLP

The inhibition is how much of the control response was suppressed. For the compound `Oc1ccc2c3c1O[C@H]1c4[nH]c5ccccc5c4C[C@@]4(O)[C@@H](C2)N(CC2CC2)CC[C@]314` [Naltrindole], at mu opioid receptor (MOR), the “RECEPTOR MU: antagonism/agonism and relative potency” value was “−”. Also, the “RECEPTOR KAPPA: antagonism/agonism and relative potency” value on kappa-opioid receptor is listed as “−”. In addition, in test [1], the inhibition at 1 µM turned out to be 41% and the inhibition at 10 µM came to 65%.

The values are drawn from patent publication US20140094482A1, “BENZAZOCINE-RING COMPOUND INHIBITION OF TAU HYPERPHOSPHORYLATION” (priority 2012, published 2014).
